# Tested on: neurons
# Experiment: Activity of neurons in the closed-loop cell culturing platform, measured with electrodes in the guiding tunnels
# Assay type: cell-based
# Details: kainate acid added to the compartment Area 1; FIG. 5c
# From the text: FIGS. 5a and 5b illustrate activity of neurons in a cell culturing platform according to an exemplifying and non-limiting embodiment. FIG. 5a illustrates signals measured with electrodes in the compartments of the cell culturing platform. The compartments are denoted with references ‘Area 1’, ‘Area 2’, and ‘Area 3’. As shown by black arrows in FIG. 5a, there is synchronous activity in the compartments Area 1, Area 2, and Area 3. […] of the cell culturing platform. The signals measured with electrodes in the guiding tunnels between the compartments Area 2 and Area 3 are denoted with a reference ‘2-3’, the signals measured with electrodes in the guiding tunnels between the compartments Area 1 and Area 2 are denoted with a reference ‘1-2’, and the signals measured with electrodes in the guiding tunnels between the compartments Area 3 and Area 1 are denoted with a reference ‘3-1’. As shown by black arrows in FIG. 5b, there is synchronous activity in the guiding tunnels between different pairs of the compartments.
# FIG. 5c illustrates an effect of adding kainate acid to the compartment Area 1.
compound,measurement,value
C=C(C)[C@H]1CN[C@H](C(=O)O)[C@H]1CC(=O)O [kainate acid],activity measured with electrodes in the guiding tunnels between the compartments Area 1 and Area 2,increases the activity
same,activity measured with electrodes in the guiding tunnels between the compartments Area 2 and Area 3,substantially on the base level
same,activity measured with electrodes in the guiding tunnels between the compartments Area 3 and Area 1,increases the activity

# From patent US20210207070A1, “A CELL CULTURING PLATFORM, A CELL CULTURE SYSTEM, AND A METHOD FOR MODELING NEURAL ACTIVITY IN VITRO” (Tampere University Foundation sr, priority 2018, published 2021)
